The source of these data is patent US11291655B2, “RAD51 inhibitors” (Cyteir Therapeutics, Inc., priority 2017, dated 2022).

In the test the test system is Daudi Cell Culture. Put plainly: Compound primary screening in Daudi cell culture. It counts as cell-based. The following applies: Daudi cells, 1250 cells per well, reads on Day 7; for EC50: Homo sapiens, 168 h. As for the experimental part:
Compound Primary Screening
1. Materials and Supplies
Plastic ware and consumables needed for this experiment include: Cell Culture media; Evaporation Buffer media; 100% DMSO; 96 well U-bottom sterile culture plates; 250 mL bottle; 1.5 mL Opaque amber epi tubes; Epi Tube rack; 300 mL reservoirs; 25 mL reservoir; 25 mL serological pipette tips; 5 mL serological pipette tips P1000 Pipette Tips; and P200 Pipette Tips.
Equipment needed for this experiment include: Viaflo 384 liquid handler; Eppendorf serological pipette; Eppendorf P1000 Pipette; and Eppendorf P200 Pipette
Daudi Cell Culture is also needed for this experiment.
Lastly, compounds (e.g., the compounds of this invention) to be tested are needed.
All steps were performed in a sterile environment inside the Biosafety cabinet.
A 96 well u-bottom plate was prepared by writing the experiment number, plate number, date and initials in the top right corner of the plate lid. With a sterile 300 ml reservoir, and 25 ml serological pipette, evaporation buffer media was pipetted into reservoir in 25 ml increments. Using the liquid handler, 150 ul of evaporation buffer media was pipetted from reservoir into rows A and H, and Columns 1 and 12 of the 96 well u-bottom plate. Cell cultures were counted to obtain the density of cells per ml, and the culture viability. The cell density information was used to obtain 1,000,000 cells from culture using a 5 mL serological pipette into an epi tube. The cell density information from the culture was used to calculate the number of cells and volume of media needed for the assay to seed 1250 cells in 130 ul of media per available culture well in the 96 well u-bottom plate. Rows B through F were used for cells (50 wells in total), with row G left for an empty media control. The calculation was overestimated by 10 mL to account for the dead volume in the 300 ml reservoir. Once the media volume was calculated, the appropriate volume of media was pipetted in 25 mL increments into the 250 mL bottle using a 25 mL serological pipette. The 250 ml bottle was capped tightly, and placed into a 37° C. water bath for 2 minutes. While the culture media was warming, 10 mL of fresh media was pipetted from the 500 mL culture media bottle into a sterile 25 mL reservoir. Using the Eppendorf multichannel pipette, 130 ul of media was pipetted from the 25 mL reservoir into row G of the 96 well u-bottom plate. Once the 250 mL bottle of media was warmed, the volume of culture needed was pipetted into the bottle, and mixed gently with a 25 mL serological pipette as to not create bubbles, and then the contents of the bottle were pipetted into a new 300 mL reservoir. Using the liquid handler, 130 ul of culture was pipetted from the 300 mL reservoir into rows B through F of the 96 well u-bottom plate. Once the culture was added, the plate was placed into a 37° C. incubator until the compound master plate was prepared for use.
Two 96 well u-bottom plates were prepared by writing the master plate name in the upper right corner of the plate lid. Labeling one DMSO master and the other Media Master. The compounds of interest were obtained from the laboratory freezer, and placed into a 25 well storage box with a lid, and set the box aside. The compounds were vortexed after thawing but before use. Using an automatic multichannel pipette, 20 ul of 100% DMSO was pipetted into wells B3-B11 through G3-G11 of the DMSO master plate. For each compound on the master plate, 50 ul of the compound were pipetted in the appropriate well of row 2 (reference plate map to determine appropriate well). A serial dilution was prepared beginning by aspirating 20 ul from row 2 and mixing with row 3, repeating until row 11 was reached. Using the liquid handler, 194 ul of Daudi media was dispensed into wells B2-B11 through G2-G11 of the Media master plate. Using the liquid handler, 6 ul from the DMSO master plate was aspirated and dispensed into the media master plate, mixing 100 ul twice. […]

Bounds are passed on as bounds.

For `CC(C)OC(=O)Nc1ccc(-c2ncc(-c3ccc(O)cc3S(=O)(=O)NC(C)(C)C)s2)cc1` [Compound I2, isopropyl N-[4-[5-[2-(tert-butylsulfamoyl)-4-hydroxy-phenyl]thiazol-2-yl]phenyl]carbamate], the EC50 was below 5 µM.
For the compound `CC(C)OC(=O)Nc1ccc(-c2ncc(-c3ccc(NCC(F)(F)F)cc3S(=O)(=O)NC(C)(C)C)s2)cc1` [Compound I3, isopropyl N-[4-[5-[2-(tert-butylsulfamoyl)-4-(2,2,2-trifluoroethylamino)phenyl]thiazol-2-yl]phenyl]carbamate], the EC50 was below 5 µM.
On the same count and under the same terms, next, `CC(C)OC(=O)Nc1ccc(-c2ncc(-c3ccc(NC4(C)COC4)cc3S(=O)(=O)NC(C)(C)C)s2)cc1` [Compound I4]: below 5 µM.
The same measure, in the same setting: the result for `CNC(=O)c1ccc(-c2cnc(-c3ccc(NC(=O)OC(C)C)cc3)s2)c(S(=O)(=O)NC(C)(C)C)c1` [Compound I5] reads below 5 µM; that for `CC(C)OC(=O)Nc1ccc(-c2ncc(-c3ccc(C(N)=O)cc3S(=O)(=O)NC(C)(C)C)s2)cc1` [Compound I6], below 5 µM.
The same measure, in the same setting: the result for `CC(C)OC(=O)Nc1ccc(-c2ncc(-c3ccc(CO)cc3S(=O)(=O)NC(C)(C)C)s2)cc1` [Compound J1] reads below 5 µM; that for `CC(C)OC(=O)Nc1ccc(-c2ncc(-c3ccc(-c4ccn[nH]4)cc3S(=O)(=O)NC(C)(C)C)s2)cc1` [Compound J2], below 5 µM.
Consider `CC(C)OC(=O)Nc1ccc(-c2ncc(-c3ccc(NC(C)C(F)(F)F)cc3S(=O)(=O)NC(C)(C)C)s2)cc1` (stereo not drawn) [Compound J3, isopropyl N-[4-[5-[2-(tert-butylsulfamoyl)-4-[(2,2,2-trifluoro-1-methyl-ethyl)amino]phenyl]thiazol-2-yl]phenyl]carbamate], for which the EC50 is below 5 µM.
`CC(C)OC(=O)Nc1ccc(-c2ncc(-c3ccc(N4CCCC4=O)cc3S(=O)(=O)NC(C)(C)C)s2)cc1` [Compound J4] came in with an EC50 below 5 µM.
The same measure, in the same setting: next, `CC(=O)Nc1ccc(-c2cnc(-c3ccc(NC(=O)OC(C)C)nc3)s2)c(S(=O)(=O)NC(C)(C)C)c1` [Compound J5]: below 1 µM.
On the same count and under the same terms, the result for `CC(C)OC(=O)Nc1ccc(-c2ncc(-c3ccc(C(F)(F)F)cc3S(=O)(=O)NC(C)(C)C)s2)cc1` [Compound J6] reads below 10 µM.
The compound `CC(C)NC(=O)Nc1ccc(-c2ncc(-c3ccc(N4CCCC4=O)cc3S(=O)(=O)NC(C)(C)C)s2)cc1` [Compound J7] showed an EC50 below 10 µM.
In turn, `CC(C)OC(=O)N(C)c1ccc(-c2ncc(-c3ccc(N4CCCC4=O)cc3S(=O)(=O)NC(C)(C)C)s2)cc1` [Compound J8, isopropyl N-[4-[5-[2-(tert-butylsulfamoyl)-4-(2-oxopyrrolidin-1-yl)phenyl]thiazol-2-yl]phenyl]-N-methyl-carbamate] came in with an EC50 below 10 µM.
Still for that read-out and setting: the result for `CC(C)OC(=O)Nc1ccc(-c2ncc(-c3ccc(N4CCCC4=O)cc3S(=O)(=O)NC(C)(C)C)s2)cc1F` [Compound J9, isopropyl N-[4-[5-[2-(tert-butylsulfamoyl)-4-(2-oxopyrrolidin-1-yl)phenyl]thiazol-2-yl]-2-fluoro-phenyl]carbamate] reads below 5 µM; that for `CC(=O)Nc1ccc(-c2cnc(-c3ccc(NCC(C)O)cc3)s2)c(S(=O)(=O)NC(C)(C)C)c1` (stereo not drawn) [Compound J11], above 10 µM.
Still for that read-out and setting: the result for `CC(=O)Nc1ccc(-c2cnc(-c3ccc(NCC(C)(C)O)cc3)s2)c(S(=O)(=O)NC(C)(C)C)c1` [Compound J12, N-[3-(tert-butylsulfamoyl)-4-[2-[4-[(2-hydroxy-2-methyl-propyl)amino]phenyl]thiazol-5-yl]phenyl]acetamide] reads above 10 µM; that for `CC(=O)Nc1ccc(-c2cnc(-c3ccc(N4CC(C)(C)OC4=O)cc3)s2)c(S(=O)(=O)NC(C)(C)C)c1` [Compound J13], above 10 µM.
Regarding `CC(=O)Nc1ccc(-c2cnc(-c3cccc(NC(=O)OC(C)C)c3)s2)c(S(=O)(=O)NC(C)(C)C)c1` [Compound J14], the concentration for a half-maximal effect (EC50) is below 10 µM.
Consider `CC(C)NC(=O)Nc1ccc(-c2ncc(-c3ccc(NS(C)(=O)=O)cc3S(=O)(=O)NC(C)(C)C)s2)cc1` [Compound J15], for which the EC50 was above 10 µM.
Still for that read-out and setting: next, `COc1cc(-c2ncc(-c3ccc(N4CCCC4=O)cc3S(=O)(=O)NC(C)(C)C)s2)ccc1NC(=O)OC(C)C` [Compound J16]: below 10 µM.
`Cc1cc(-c2ncc(-c3ccc(N4CCCC4=O)cc3S(=O)(=O)NC(C)(C)C)s2)ccc1NC(=O)OC(C)C` [Compound J17]: the “EC50 (μM)” value was “FAIL”.
As for `CC(C)OC(=O)Nc1ccc(-c2ncc(-c3ccc(N(C)S(C)(=O)=O)cc3S(=O)(=O)NC(C)(C)C)s2)cc1` [Compound J18], the EC50 was below 5 µM.
Still for that read-out and setting: next, `CC(=O)Nc1ccc(-c2cnc(-c3ccc(N4CCOC4=O)cc3)s2)c(S(=O)(=O)NC(C)(C)C)c1` [Compound J19, N-[3-(tert-butylsulfamoyl)-4-[2-[4-(2-oxooxazolidin-3-yl)phenyl]thiazol-5-yl]phenyl]acetamide]: above 10 µM; `CC(C)OC(=O)Nc1ccc(-c2ncc(-c3ccc(N4CCN(Cc5ccccc5)C4=O)cc3S(=O)(=O)NC(C)(C)C)s2)cc1` [Compound J21]: above 10 µM; `CC(C)NC(=S)Nc1ccc(-c2ncc(-c3ccc(N4CCN(Cc5ccccc5)C4=O)cc3S(=O)(=O)NC(C)(C)C)s2)cc1` [Compound J22]: above 10 µM.
`CC(C)OC(=O)Nc1ccc(-c2ncc(-c3ccc(N4CCOC4=O)cc3S(=O)(=O)NC(C)(C)C)s2)cc1` [Compound J23, isopropyl N-[4-[5-[2-(tert-butylsulfamoyl)-4-(2-oxooxazolidin-3-yl)phenyl]thiazol-2-yl]phenyl]carbamate]: the concentration giving a half-maximal response (EC50) was below 5 µM.
`CC(C)OC(=O)Nc1ccc(-c2ncc(-c3ccc(N4CCCOC4=O)cc3S(=O)(=O)NC(C)(C)C)s2)cc1` [Compound J24, isopropyl N-[4-[5-[2-(tert-butylsulfamoyl)-4-(2-oxo-1,3-oxazinan-3-yl)phenyl]thiazol-2-yl]phenyl]carbamate] displayed an EC50 below 5 µM.
`CC(O)CNc1ccc(-c2cnc(-c3ccc(NC(=O)OC(C)C)cc3)s2)c(S(=O)(=O)NC(C)(C)C)c1` (stereo not drawn) [Compound J25, isopropyl N-[4-[5-[2-(tert-butylsulfamoyl)-4-(2-hydroxypropylamino)phenyl]thiazol-2-yl]phenyl]carbamate] had an EC50 below 5 µM.
As for `CC(C)OC(=O)Nc1ccc(-c2ncc(-c3ccc(N4CC(C)OC4=O)cc3S(=O)(=O)NC(C)(C)C)s2)cc1` (stereo not drawn) [Compound J26, isopropyl (4-(5-(2-(N-(tert-butyl)sulfamoyl)-4-(5-methyl-2-oxooxazolidin-3-yl)phenyl)thiazol-2-yl)phenyl)carbamate], the EC50 was below 10 µM.
On the same count and under the same terms, the result for `CC(C)OC(=O)Nc1ccc(-c2ncc(-c3ccc(N4CC(Cc5ccccc5)OC4=O)cc3S(=O)(=O)NC(C)(C)C)s2)cc1` (stereo not drawn) [Compound J27, isopropyl (4-(5-(4-(5-benzyl-2-oxooxazolidin-3-yl)-2-(N-(tert-butyl)sulfamoyl)phenyl)thiazol-2-yl)phenyl)carbamate] reads above 10 µM; that for `CC(C)OC(=O)Nc1ccc(-c2ncc(-c3ccc(N4CCC(Cc5ccccc5)C4=O)cc3S(=O)(=O)NC(C)(C)C)s2)cc1` (stereo not drawn) [Compound J28, isopropyl (4-(5-(4-(3-benzyl-2-oxopyrrolidin-1-yl)-2-(N-(tert-butyl)sulfamoyl)phenyl)thiazol-2-yl)phenyl)carbamate], above 10 µM; that for `CC(C)OC(=O)Nc1ccc(-c2ncc(-c3ccc(N4CC(c5ccccc5)OC4=O)cc3S(=O)(=O)NC(C)(C)C)s2)cc1` (stereo not drawn) [Compound J29, isopropyl N-[4-[5-[2-(tert-butylsulfamoyl)-4-(2-oxo-5-phenyl-oxazolidin-3-yl)-phenyl]thiazol-2-yl]phenyl]carbamate], above 10 µM.
On the same count and under the same terms, the result for `CC(C)OC(=O)Nc1ccc(-c2ncc(-c3ccc(C(=O)NCc4ccccc4)cc3S(=O)(=O)NC(C)(C)C)s2)cc1` [Compound K1] reads above 10 µM.
